Results taken from PMC12018048, “Intranasal kisspeptin administration rapidly stimulates gonadotropin release in humans” (eBioMedicine, 2025).

Legend:
[1] = tested on: serum LH, FSH, oestradiol and progesterone; assay: Intranasal kisspeptin-54, reproductive hormone profiles in patients with hypothalamic amenorrhoea; assay type: in vivo, human
Method: (§1) This was a randomised, double-blinded, crossover, placebo-controlled clinical study (Fig. 1, Fig. 2, Fig. 3a). Participants were admitted to the Clinical Research Unit (Imperial College Healthcare NHS Trust) and completed five (in healthy men) or two (in healthy women and patients with HA) study visits. […] Study visits in healthy women were conducted in the follicular phase of the menstrual cycle (i.e., days 2–10 inclusive) to control for changes in reproductive hormones over the course of the cycle and were conducted across two different menstrual cycles to allow washout.
(§2) All studies commenced at 08:00 to control for circadian hormonal changes. Participants were instructed to abstain from alcohol, caffeine, and sexual activities from 22:00 preceding each study visit. On arrival, an intravenous cannula was inserted into one antecubital fossa, and blood was sampled at timepoints −30, −15, and 0 min, before intranasal administration of kisspeptin-54 or 0.9% saline (placebo). Following participant education (described below), healthy men self-administered the following 5 interventions under supervision in random order via the intranasal route: 3.2, 6.4, 12.8, and 25.6 nmol/kg of kisspeptin-54, or placebo. Healthy women and patients with HA attended for the same protocol comparing 12.8 nmol/kg of kisspeptin-54 and placebo in random order. After administration of kisspeptin-54 or placebo at timepoint 0 min, serum levels of LH, FSH, and testosterone (in men), or oestradiol and progesterone (in women) were measured every 15 min for 4 h. Heart rate, blood pressure, and the presence of adverse symptoms were recorded every 15 min.
(§3) Kisspeptin-54 or placebo was self-administered using nasal spray devices that delivered a single volume of 100 μL per actuation (SP270+ pump, 3959 actuator, 5 mL SGD U-Save glass bottles provided by Nemera, La Verpillière, France). The kisspeptin-54 nasal spray solution formulations were prepared by reconstituting kisspeptin-54 powder stored in sterile vials on the morning of each study visit to produce a solution containing the target dose according to body weight in 400 μL.
(§4) Participants were familiarised with the procedure of intranasal application and were provided with written administration instructions ahead of each study visit, as described in.[38] In addition, participants received a 5-min training session using a dummy nasal spray device before starting the study to ensure good technique, which all participants easily understood. Under instruction and supervision from the clinical team, participants primed the nasal sprays then self-administered a total of four sprays of kisspeptin-54 or placebo per visit (i.e., 4 × 100 μL), alternating between nostrils and leaving 60 s between sprays, to allow satisfactory dissipation and avoid solution running out of the nostrils. Nasal sprays containing kisspeptin or placebo were identical in appearance, volume, and administration technique.
(§5) Blood samples were collected to measure serum reproductive hormone levels at the timepoints depicted in Fig. 1, Fig. 2, Fig. 3a. Serum samples were stored at −20 °C until analysis. Serum LH, FSH, testosterone (in men), and oestradiol and progesterone (in women) were measured using automated chemiluminescent immunoassays (Abbott Diagnostics, Maidenhead, UK: LH catalogue # 2P40-25, FSH catalogue # 7K75-25, testosterone catalogue # 07K7320, oestradiol catalogue # 7K72-25, progesterone catalogue # 7K77-25). Reference ranges: LH in international units per litre (IU/L), 2–12 (men), 2–10 (follicular), 20–60 (mid-cycle), 4–14 (luteal); FSH in IU/L, 1.7–8 (men), 1.5–8.0 (follicular and luteal), 10–50 (mid-cycle); in men: testosterone in nanomoles per litre (nmol/L), 10–30; and in women: oestradiol in picomoles per litre (pmol/L), <300 (early follicular), 400–1500 (mid-cycle), 200–1000 (luteal) and progesterone in nmol/L, <5.0 (follicular), 3.5–67 (luteal). […]

[2] = Safety assessments in healthy participants and patients (adverse events, blood pressure, heart rate); assay type: in vivo, human; conditions: intranasal; for Side effects or adverse events (of any severity): all participants in all study groups (healthy men, healthy women, patients with HA)
Method: as §2
The primary outcome measure was change in serum LH following intranasal administration of kisspeptin compared to placebo. The secondary outcome measures were changes in serum FSH, as well as testosterone [in men], and oestradiol and progesterone [in women] following intranasal administration of kisspeptin compared to placebo. In addition, safety assessments were performed that included adverse event recording, blood pressure, and heart rate measurements.

[3] = Kisspeptin-54 powder particle size and shape analysis (Morphologi 4); assay type: physicochemical
Method: Particle size and shape analysis of the kisspeptin-54 powder was performed using a Morphologi 4 (Malvern Instruments, Worcestershire, UK). Particles were readily dispersed using the dispersion unit at low energy level. Bright field illumination was used for microscopic visualisation of the particles with the light intensity calibrated to 70%. The samples were scanned using the 20× objective lens over a scan area of 4.5 mm by 4.5 mm with a trash size of 10 pixels.

[4] = human, cited from earlier work
Method: This was a randomised, double-blinded, crossover, placebo-controlled clinical study (Fig. 1, Fig. 2, Fig. 3a). Participants were admitted to the Clinical Research Unit (Imperial College Healthcare NHS Trust) and completed five (in healthy men) or two (in healthy women and patients with HA) study visits. […] Study visits in healthy women were conducted in the follicular phase of the menstrual cycle (i.e., days 2–10 inclusive) to contr ... || page 10: Research Governance and Integrity Team Throughout the study there will be at least one physician available 24 hours per day via a direct line, with a second physician on back up, and a secondary direct line to one of the senior physicians. […] Kisspeptin is rapidly cleared (11, 12) and participants would not be anticipated to experience any delayed effects on completion of the study visit. The Chief Investigato ...

LH = conditions: mice, intraperitoneal route, 1 nM; cited from earlier work
[5] = tested on: serum LH, FSH, oestradiol and progesterone; assay: Intranasal kisspeptin-54, reproductive hormone profiles in healthy women; assay type: in vivo, human; conditions: N = 12
Method: as §1, §2, §3, §4, §5

[6] = intranasal 12.8 nmol/kg, N = 10 (HA) and N = 12 (healthy women)
[7] = intranasal 12.8 nmol/kg, unpaired t-test, N = 10 (HA) and N = 12 (healthy women)
[8] = patients with HA, intranasal 12.8 nmol/kg vs placebo, paired t-test, N = 10
[9] = patients with HA, intranasal 12.8 nmol/kg, two-way ANOVA, 4 h time profile, N = 10
[10] = patients with hypothalamic amenorrhoea, intranasal 12.8 nmol/kg, 4 h sampling, mean ± SEM, N = 10
[11] = patients with hypothalamic amenorrhoea, intranasal 12.8 nmol/kg, mean ± SEM, N = 10
[12] = follicular phase, intranasal 12.8 nmol/kg, 4 h sampling, mean ± SEM
[13] = follicular phase, intranasal 12.8 nmol/kg, mean ± SEM
[14] = intranasal 12.8 nmol/kg vs placebo, paired t-test
[15] = intranasal 12.8 nmol/kg, two-way ANOVA, 4 h time profile

Kisspeptin-54
Maximal FSH increase, patients with HA relative to healthy women [1, 6]: over 10 fold | Maximal LH increase, patients with HA relative to healthy women [1, 6]: over 3 fold | Maximal FSH increase, mean difference patients with HA vs healthy women [1, 7]: 2.77 IU/L | Maximal LH increase, mean difference patients with HA vs healthy women [1, 7]: 2.95 IU/L | FSH AUC, mean difference vs placebo [1, 8]: 580.0 h·IU/L | FSH maximum increase, mean difference vs placebo [1, 8]: 3.1 IU/L | LH AUC, mean difference vs placebo [1, 8]: 756.9 h·IU/L | LH maximum increase, mean difference vs placebo [1, 8]: 4.3 IU/L | Time of maximal stimulation of serum LH post-administration ([1]; patients with HA, intranasal 12.8 nmol/kg, N = 10): 30 to 45 min | Effect on circulating oestradiol and progesterone levels ([1]; patients with HA, intranasal 12.8 nmol/kg, acute 4-h time-course, N = 10): no significant effects | Serum FSH over time, mean difference vs placebo [1, 9]: 2.35 IU/L | Serum LH over time, mean difference vs placebo [1, 9]: 3.0 IU/L | AUC of the change in serum FSH [1, 10]: 474.9 ± 237.3 h·IU/L | AUC of the change in serum LH [1, 10]: 600.6 ± 146.7 h·IU/L | Maximum increase from baseline in serum FSH [1, 11]: 3.1 ± 0.3 IU/L | Maximum increase from baseline in serum LH [1, 11]: 4.4 ± 0.2 IU/L | Side effects or adverse events (of any severity) [2]: without any side effects or adverse events | Side effects or adverse events (of any severity) ([2]; listed as kisspeptin): no side effects or adverse events | Effect on blood pressure or heart rate measurements ([2]; any of the doses administered, recorded every 15 min): no effect | Particle shape ([3]; Morphologi 4): irregular-shaped particles | Proportion of particles in the 20–50 μm range ([3]; Morphologi 4): over 40% | Circular equivalent diameter range of powder particles ([3]; Morphologi 4, N = 55,421 particles): 0.5–113 μm | Powder particle size range (particles largely within) ([3]; Morphologi 4 static automated imaging): 10–110 μm | Intravenous half-life ([4]; study protocol (supplement 2)): 28 min | Circulating half-life [4]: 27.6 min | Effect on LH (LH): robustly increases LH | AUC of the change in serum FSH [5, 12]: -36.1 ± 23.4 h·IU/L | AUC of the change in serum LH [5, 12]: 96.0 ± 45.8 h·IU/L | Maximum increase from baseline in serum FSH [5, 13]: 0.3 ± 0.1 IU/L | Maximum increase from baseline in serum LH [5, 13]: 1.4 ± 0.3 IU/L | FSH AUC, mean difference vs placebo [5, 14]: 76.4 h·IU/L | FSH maximum increase, mean difference vs placebo [5, 14]: 0.4 IU/L | LH AUC, mean difference vs placebo [5, 14]: 179.8 h·IU/L | LH maximum increase, mean difference vs placebo [5, 14]: 1.0 IU/L | Effect on circulating oestradiol and progesterone levels ([5]; intranasal 12.8 nmol/kg, acute 4-h time-course): no significant effects | Serum FSH over time, mean difference vs placebo [5, 15]: 0.3 IU/L | Serum LH over time, mean difference vs placebo [5, 15]: 0.7 IU/L
